Data: US20100303833A1, “Method for Identifying a MHC Class H-Dependent Tumor Associated T Helper Cell Antigen” (priority 2005, published 2010)
Ends that are not written are not given here.

Key:
Type in all cases: cell-based, human
PBMC = assay: Lymphocyte proliferation assay ([3H]-thymidine incorporation), PBMC with peptide-pulsed autologous monocytes
Protocol: (§1) Lymphocyte Proliferation Assay. The lymphocyte proliferation assay was performed according to standard methods (Somasundaram, et al. (1995) J. Immunol. 155:3253-61). For screening of Th35-1A cell-reactivity with phage libraries, T helper cells (1-2×10^4/well of 96-well round-bottom microtiter plates; CORNING, Corning, N.Y.) were cultured with irradiated autologous EBV-B cells (10^4/well) pre-pulsed with 1-3×10^3 phage. To determine T helper or PBMC reactivity with peptide, adherent monocytes (5×10^4/well, obtained from PBMC) pre-pulsed with various concentrations (3.1-50 μM) of peptide were incubated with Th35-1A cells or PBMC (5×10^4/well). T helper cells or PBMC were stimulated with peptide-pulsed monocytes once or twice. All incubations were at 37° C. for 5 days in RPMI 1640/GLUTAMAX medium supplemented with 10% heat-inactivated human AB serum (Gemini Bioproducts, West Sacramento, Calif.), 10 mM HEPES and 5×10^−5 M 2-mercaptoethanol (both from SIGMA-ALDRICH). Proliferative responses of lymphocytes were determined using a standard [^3H]-thymidine incorporation assay. All determinations were performed in triplicate. Results are expressed as counts per minute (cpm) incorporated into lymphocytes. The lymphocyte proliferation inhibition assay with anti-HLA class II antibody B33.1 was performed using established methods (Somasundaram, et al. (1995) supra).

Th35-1A cells = assay: Lymphocyte proliferation assay ([3H]-thymidine incorporation), Th35-1A cells with peptide-pulsed monocytes; settings: for HLA dependence of peptide recognition by Th35-1A: peptide-pulsed autologous DR7+ monocytes, anti-HLA class II antibody or control mouse Ig at 10 μg/mL (FIG. 2A)
Protocol: as §1

lymphocytes = assay: IFN-γ release assay (ELISA)
Protocol: IFN-γ Release Assay. Supernatants obtained 48 hours after T helper cell stimulation with phage-pulsed EBV-B cells were tested for the presence of IFN-γ using an ENDOGEN ELISA kit (Pierce Biotechnology, Inc., Rockford, Ill.).

“TGRLRGTKTVQEKEN [peptide #2, RPL8 position 243-257]” was tested, and the “Proliferation of autologous PBMC following peptide stimulation” value (PBMC; lymphocytes from two of the three DR7+ melanoma patients (FIGS. 3A-3C), stimulated twice) was “significantly and specifically proliferated”, the “Lymphoproliferative responses to peptide stimulation” value (PBMC; two DR7− melanoma patients (FIGS. 3D, 3E) and four healthy donors (FIG. 3F), one peptide stimulation, listed as RPL8 peptide #2) was “did not respond” and the “Recognition by Th35-1A” value (Th35-1A cells; after presentation by autologous monocytes (FIG. 2A)) was “recognized”. For the same sequence, the “Presentation of peptide to Th35-1A cells by allogeneic DR7+ monocytes” value (Th35-1A cells; allogeneic DR7+ monocytes (FIG. 2C)) was “presented”, the “Presentation of peptide to Th35-1A cells by DR7− monocytes” value (Th35-1A cells; allogeneic DR7− monocytes (FIG. 2D)) was “did not” and the “HLA dependence of peptide recognition by Th35-1A” value (Th35-1A cells) was “HLA class II-dependent”. The “HLA dependence of peptide recognition by Th35-1A” value (Th35-1A cells; listed as RPL8 peptide #2) was “HLA DR7- and peptide concentration-dependent”, the “Th35-1A proliferation, dependence on peptide concentration” value (Th35-1A cells; peptide-pulsed autologous monocytes, various concentrations (FIG. 2B)) was “peptide concentration-dependent” and the IFN-γ produced (lymphocytes; non-proliferating lymphocytes from two DR7− patients (FIGS. 3D, 3E) and healthy donor (FIG. 3F)) was under 12 pg/mL. For the same sequence, the IFN-γ produced maximally (lymphocytes; proliferating lymphocytes from DR7+ patient of FIG. 3A) was 124.3±1.67 pg per mL and the IFN-γ produced maximally (lymphocytes; proliferating lymphocytes from DR7+ patient of FIG. 3B) was 224.3±4.3 pg per mL.
